System: LS174T xenografts
Test: Biodistribution of ^125I-CC49-TCO 18 and ^177Lu-tetrazine 15 with one or two doses of 12 (Example 9)
Format: in vivo, mice
Procedure: LS174T tumor model. The human colon cancer cell line LS174T was obtained from the ATCC and maintained in Eagle's minimal essential medium (Sigma) supplemented with 10% heat inactivated fetal calf serum (Gibco), penicillin (100 U/mL), streptomycin (100 μg/mL) and […] Glutamax. Nude female Balb/C mice (20-25 g body weight, Charles River Laboratories) were inoculated subcutaneously with 5×10^6 cells in 100 μL sterile PBS.
Nude female mice (n=4) bearing LS174T xenografts (0.29±0.16 g) were injected ^125I-CC49-TCO 18 (t=0, 100 μg/100 μl per mouse) followed by one 160 μg/100 μl dose of galactose-MSA-tetrazine (12) 30 hours post mAb injection, or two 160 μg/100 μl 12 doses 30 and 48 hours post mAb injection. Two hours after the last clearing agent dose the mice were administered 8.52 μg of ^177Lu-labeled tetrazine 15 (10 equiv. with respect to mAb) and were sacrificed 3 hours post tetrazine injection. Blood was withdrawn by heart puncture and selected organs and tissues were harvested and blotted dry. The blood samples and tissues were weighed, added with 1 mL PBS and the radioactivity was counted in a gamma counter along with standards to determine the % ID/g. The differences between columns were analyzed using the two-tailed unpaired t-test (Graphpad Prism v. 5.01)

[1] = Two doses of 12, 30 and 48 h post mAb

## O=C([O-])CN1CCN(CC(=O)[O-])CCN(CC(=O)NCCOCCOCCOCCOCCOCCOCCOCCOCCOCCOCCOCCNC(=O)CCCC(=O)Nc2ccc(-c3nnc(-c4ccccn4)nn3)nc2)CCN(CC(=O)[O-])CC1.[177Lu+3] [^177Lu-tetrazine]
One dose of 12, 30 h post mAb
  ^177Lu-tetrazine T/blood: 45.9±14.2
  ^177Lu-tetrazine T/bone: 136.1 ± 68.7
  ^177Lu-tetrazine T/brain: 935.9 ± 297.1
  ^177Lu-tetrazine T/heart: 64.7 ± 18.0
  ^177Lu-tetrazine T/kidney: 7.9 ± 3.3
  ^177Lu-tetrazine T/liver: 32.4 ± 6.3
  ^177Lu-tetrazine T/lung: 28.1 ± 11.8
  ^177Lu-tetrazine T/muscle: 128.5 ± 83.7
  ^177Lu-tetrazine T/spleen: 50.5 ± 10.9
  ^177Lu-tetrazine in blood: 0.17 ± 0.06 % ID/g
  ^177Lu-tetrazine in bone: 0.06 ± 0.03 % ID/g
  ^177Lu-tetrazine in brain: 0.01 ± 0.00 % ID/g
  ^177Lu-tetrazine in heart: 0.12 ± 0.03 % ID/g
  ^177Lu-tetrazine in kidney: 1.06 ± 0.39 % ID/g
  ^177Lu-tetrazine in liver: 0.23 ± 0.00 % ID/g
  ^177Lu-tetrazine in lung: 0.28 ± 0.05 % ID/g
  ^177Lu-tetrazine in muscle: 0.08 ± 0.04 % ID/g
  ^177Lu-tetrazine in spleen: 0.15 ± 0.03 % ID/g
  ^177Lu-tetrazine in tumor: 7.48 ± 1.46 % ID/g
[1]
  ^177Lu-tetrazine T/bone: 123.3 ± 80.3
  ^177Lu-tetrazine T/brain: 1146.7 ± 122.9
  ^177Lu-tetrazine T/heart: 142.4 ± 18.5
  ^177Lu-tetrazine T/kidney: 3.4 ± 0.4
  ^177Lu-tetrazine T/liver: 30.8 ± 2.9
  ^177Lu-tetrazine T/lung: 26.2 ± 3.9
  ^177Lu-tetrazine T/muscle: 140.9 ± 67.1
  ^177Lu-tetrazine T/spleen: 63.7 ± 9.2
  ^177Lu-tetrazine in blood: 0.03 ± 0.00 % ID/g
  ^177Lu-tetrazine in bone: 0.08 ± 0.08 % ID/g
  ^177Lu-tetrazine in brain: 0.00 ± 0.00 % ID/g
  ^177Lu-tetrazine in heart: 0.04 ± 0.00 % ID/g
  ^177Lu-tetrazine in kidney: 1.58 ± 0.14 % ID/g
  ^177Lu-tetrazine in liver: 0.18 ± 0.02 % ID/g
  ^177Lu-tetrazine in lung: 0.21 ± 0.03 % ID/g
  ^177Lu-tetrazine in muscle: 0.05 ± 0.03 % ID/g
  ^177Lu-tetrazine in spleen: 0.09 ± 0.01 % ID/g
  ^177Lu-tetrazine in tumor: 5.38 ± 0.48 % ID/g

From patent US9427482B2, “Agents for clearing biomolecules from circulation” (KONINKLIJKE PHILIPS N.V., priority 2010, dated 2016)
